Experimental data as given in article PMC6978363, “Chaperone mediated detection of small molecule target binding in cells” (Nature Communications, 2020).

Columns and labels:
Experiment in all cases: biochemical
MST4 = molecular target: T1, MST4 (Homo sapiens, UniProt Q9P289); settings: read-out: % Inhibition (at 10mM)
T1 construct: gene STK26

CLK2 = CLK2 (Homo sapiens, UniProt P49760); settings: read-out: % Inhibition (at 10mM)
PKD1 = molecular target: T2, PKD1 (Homo sapiens, UniProt Q15139); settings: read-out: % Inhibition (at 10mM)
T2 construct: gene PRKD1

RSK3 = molecular target: T3, RSK3 (Homo sapiens, UniProt Q15349); settings: read-out: % Inhibition (at 10mM)
T3 construct: gene RPS6KA2

PIM3 = PIM3 (Homo sapiens, UniProt Q86V86); settings: read-out: % Inhibition (at 10mM)
CK1_epsilon1 = molecular target: T4, CK1_epsilon1 (Homo sapiens, UniProt P49674); settings: read-out: % Inhibition (at 10mM)
T4 construct: gene CSNK1E; epsilon 1
T4 sequence (P49674 whole entry): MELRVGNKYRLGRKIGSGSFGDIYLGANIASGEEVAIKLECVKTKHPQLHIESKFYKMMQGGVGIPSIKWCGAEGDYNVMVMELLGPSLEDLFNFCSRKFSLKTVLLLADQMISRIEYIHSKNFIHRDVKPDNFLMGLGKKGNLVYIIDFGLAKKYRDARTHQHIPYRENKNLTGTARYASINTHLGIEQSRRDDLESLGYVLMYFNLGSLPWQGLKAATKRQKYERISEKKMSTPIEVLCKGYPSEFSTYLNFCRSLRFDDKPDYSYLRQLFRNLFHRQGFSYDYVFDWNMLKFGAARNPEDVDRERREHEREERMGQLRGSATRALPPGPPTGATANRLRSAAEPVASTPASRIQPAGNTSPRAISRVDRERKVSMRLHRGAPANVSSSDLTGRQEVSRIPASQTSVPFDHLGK

MAPKAPK3 = MAPKAPK3 (Homo sapiens, UniProt Q16644); settings: read-out: % Inhibition (at 10mM)
Aurora_C = molecular target: T5, Aurora_C (Homo sapiens, UniProt Q9UQB9); settings: read-out: % Inhibition (at 10mM)
T5 construct: gene AURKC

HIPK4 = HIPK4 (Homo sapiens, UniProt Q8NE63); settings: read-out: % Inhibition (at 10mM)
HIPK4, sequence (Q8NE63 whole entry): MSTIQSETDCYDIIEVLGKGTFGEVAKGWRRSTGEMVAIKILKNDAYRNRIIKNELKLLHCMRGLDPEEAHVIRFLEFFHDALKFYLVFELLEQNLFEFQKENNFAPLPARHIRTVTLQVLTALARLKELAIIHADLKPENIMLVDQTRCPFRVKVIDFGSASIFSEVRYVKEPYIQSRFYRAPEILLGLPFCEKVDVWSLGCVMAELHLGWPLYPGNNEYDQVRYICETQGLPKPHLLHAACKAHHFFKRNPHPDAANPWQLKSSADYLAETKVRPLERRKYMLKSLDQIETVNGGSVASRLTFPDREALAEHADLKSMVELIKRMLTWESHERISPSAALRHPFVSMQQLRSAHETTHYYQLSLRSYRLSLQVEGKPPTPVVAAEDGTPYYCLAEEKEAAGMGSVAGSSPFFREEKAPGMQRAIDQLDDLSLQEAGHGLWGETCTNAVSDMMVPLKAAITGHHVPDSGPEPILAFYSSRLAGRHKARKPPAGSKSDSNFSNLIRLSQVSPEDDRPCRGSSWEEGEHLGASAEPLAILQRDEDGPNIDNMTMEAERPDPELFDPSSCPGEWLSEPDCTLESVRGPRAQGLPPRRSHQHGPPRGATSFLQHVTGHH

CDK5/p25 = molecular target: T6, CDK5/p25 (Homo sapiens, UniProt Q00535); settings: read-out: % Inhibition (at 10mM)
T6 construct: p25

GRK2 = GRK2 (Homo sapiens, UniProt P25098); settings: read-out: % Inhibition (at 10mM)
IRR = molecular target: T7, IRR (Homo sapiens, UniProt P14616); settings: read-out: % Inhibition (at 10mM)
T7 construct: gene INSRR

PRKAA2_B1_G2 = molecular target: T8, PRKAA2_B1_G2 (Homo sapiens, UniProt P54646); settings: read-out: % Inhibition (at 10mM)
T8 construct: gene PRKAA2

GRK4 = GRK4 (Homo sapiens, UniProt P32298); settings: read-out: % Inhibition (at 10mM)
GSK3_alpha = molecular target: T9, GSK3_alpha (Homo sapiens, UniProt P49840); settings: read-out: % Inhibition (at 10mM)
T9 construct: gene GSK3A
T9 sequence (P49840 whole entry): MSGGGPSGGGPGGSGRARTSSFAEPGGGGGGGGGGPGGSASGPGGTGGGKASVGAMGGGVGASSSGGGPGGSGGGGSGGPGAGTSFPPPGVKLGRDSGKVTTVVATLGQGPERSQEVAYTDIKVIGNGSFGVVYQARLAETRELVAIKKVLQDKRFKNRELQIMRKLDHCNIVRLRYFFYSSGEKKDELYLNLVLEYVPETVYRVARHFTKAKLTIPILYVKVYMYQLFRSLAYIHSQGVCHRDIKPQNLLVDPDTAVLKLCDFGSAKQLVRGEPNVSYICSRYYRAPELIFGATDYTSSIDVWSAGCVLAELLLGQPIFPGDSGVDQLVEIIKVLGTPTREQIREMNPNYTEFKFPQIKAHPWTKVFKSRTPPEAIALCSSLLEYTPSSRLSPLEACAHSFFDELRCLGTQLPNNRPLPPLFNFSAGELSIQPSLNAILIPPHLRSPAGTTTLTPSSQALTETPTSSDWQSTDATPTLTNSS

LynB = molecular target: T10, LynB (Homo sapiens, UniProt P07948); settings: read-out: % Inhibition (at 10mM)
T10 construct: gene LYN; isoform B

PRKAA2_B1_G3 = molecular target: T11, PRKAA2_B1_G3 (Homo sapiens, UniProt P54646); settings: read-out: % Inhibition (at 10mM)
T11 construct: gene PRKAA2

Mer = molecular target: T12, Mer (Homo sapiens, UniProt Q12866); settings: read-out: % Inhibition (at 10mM)
T12 construct: gene MERTK

MST1 = molecular target: T13, MST1 (Homo sapiens, UniProt Q13043); settings: read-out: % Inhibition (at 10mM)
T13 construct: gene STK4

TXK = TXK (Homo sapiens, UniProt P42681); settings: read-out: % Inhibition (at 10mM)
GRK5 = GRK5 (Homo sapiens, UniProt P34947); settings: read-out: % Inhibition (at 10mM)
NEK7 = NEK7 (Homo sapiens, UniProt Q8TDX7); settings: read-out: % Inhibition (at 10mM)
MKNK1 = MKNK1 (Homo sapiens, UniProt Q9BUB5); settings: read-out: % Inhibition (at 10mM)
MELK = MELK (Homo sapiens, UniProt Q14680); settings: read-out: % Inhibition (at 10mM)
p70S6K = molecular target: T14, p70S6K (Homo sapiens, UniProt P23443); settings: read-out: % Inhibition (at 10mM)
T14 construct: gene RPS6KB1

GCK = molecular target: T15, GCK (Homo sapiens, UniProt Q12851); settings: read-out: % Inhibition (at 10mM)
T15 construct: gene MAP4K2

MRCK_alpha = molecular target: T16, MRCK_alpha (Homo sapiens, UniProt Q5VT25); settings: read-out: % Inhibition (at 10mM)
T16 construct: gene CDC42BPA

p70S6Kb = molecular target: T17, p70S6Kb (Homo sapiens, UniProt Q9UBS0); settings: read-out: % Inhibition (at 10mM)
T17 construct: gene RPS6KB2

NEK2 = NEK2 (Homo sapiens, UniProt P51955); settings: read-out: % Inhibition (at 10mM)
PIM1 = PIM1 (Homo sapiens, UniProt P11309); settings: read-out: % Inhibition (at 10mM)
EphB2 = EphB2 (Homo sapiens, UniProt P29323); settings: read-out: % Inhibition (at 10mM)
DMPK2 = molecular target: T18, DMPK2 (Homo sapiens, UniProt Q6DT37); settings: read-out: % Inhibition (at 10mM)
T18 construct: gene CDC42BPG
T18 sequence (Q6DT37 whole entry): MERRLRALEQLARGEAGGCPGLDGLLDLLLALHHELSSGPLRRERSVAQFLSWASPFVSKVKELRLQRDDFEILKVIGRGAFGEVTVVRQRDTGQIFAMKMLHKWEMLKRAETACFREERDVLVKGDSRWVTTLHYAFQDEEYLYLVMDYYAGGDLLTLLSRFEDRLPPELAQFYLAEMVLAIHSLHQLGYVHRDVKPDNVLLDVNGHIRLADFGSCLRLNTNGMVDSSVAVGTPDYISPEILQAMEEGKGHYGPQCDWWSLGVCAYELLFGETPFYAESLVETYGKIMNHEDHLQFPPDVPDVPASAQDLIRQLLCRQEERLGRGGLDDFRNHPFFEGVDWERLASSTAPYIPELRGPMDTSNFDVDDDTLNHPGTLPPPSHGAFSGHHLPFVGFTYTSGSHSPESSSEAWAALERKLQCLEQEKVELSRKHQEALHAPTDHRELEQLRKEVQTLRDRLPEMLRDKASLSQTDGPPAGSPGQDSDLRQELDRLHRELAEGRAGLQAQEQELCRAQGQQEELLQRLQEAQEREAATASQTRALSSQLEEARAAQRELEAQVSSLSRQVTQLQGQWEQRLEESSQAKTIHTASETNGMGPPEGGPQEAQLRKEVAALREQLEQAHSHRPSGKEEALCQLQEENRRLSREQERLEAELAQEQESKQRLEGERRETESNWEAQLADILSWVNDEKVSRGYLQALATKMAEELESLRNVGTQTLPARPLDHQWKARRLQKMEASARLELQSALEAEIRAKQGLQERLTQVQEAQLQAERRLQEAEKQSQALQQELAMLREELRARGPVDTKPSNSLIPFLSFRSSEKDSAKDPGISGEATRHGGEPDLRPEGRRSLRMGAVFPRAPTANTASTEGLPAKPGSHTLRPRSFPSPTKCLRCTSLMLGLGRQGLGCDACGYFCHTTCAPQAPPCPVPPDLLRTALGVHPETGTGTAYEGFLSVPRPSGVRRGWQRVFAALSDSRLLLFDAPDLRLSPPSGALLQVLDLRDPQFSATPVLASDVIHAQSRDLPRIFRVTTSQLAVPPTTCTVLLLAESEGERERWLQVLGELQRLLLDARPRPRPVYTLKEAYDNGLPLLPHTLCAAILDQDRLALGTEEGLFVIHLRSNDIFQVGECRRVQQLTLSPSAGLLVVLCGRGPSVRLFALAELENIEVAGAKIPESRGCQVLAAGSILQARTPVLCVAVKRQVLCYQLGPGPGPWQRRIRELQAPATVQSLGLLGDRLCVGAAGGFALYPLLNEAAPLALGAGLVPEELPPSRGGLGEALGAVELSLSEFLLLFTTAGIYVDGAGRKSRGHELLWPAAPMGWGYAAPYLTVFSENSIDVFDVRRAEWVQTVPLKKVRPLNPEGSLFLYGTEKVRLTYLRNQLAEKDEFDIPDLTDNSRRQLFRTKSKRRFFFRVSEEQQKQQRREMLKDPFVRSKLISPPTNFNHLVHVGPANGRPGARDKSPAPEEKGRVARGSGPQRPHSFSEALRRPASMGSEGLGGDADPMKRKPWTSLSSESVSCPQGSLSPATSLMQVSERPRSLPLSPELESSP

MYLK2(skMLCK) = MYLK2(skMLCK) (Homo sapiens, UniProt Q9H1R3); settings: read-out: % Inhibition (at 10mM)
NEK4 = NEK4 (Homo sapiens, UniProt P51957); settings: read-out: % Inhibition (at 10mM)
TAO2 = molecular target: T19, TAO2 (Homo sapiens, UniProt Q9UL54); settings: read-out: % Inhibition (at 10mM)
T19 construct: gene TAOK2
T19 sequence (Q9UL54 whole entry): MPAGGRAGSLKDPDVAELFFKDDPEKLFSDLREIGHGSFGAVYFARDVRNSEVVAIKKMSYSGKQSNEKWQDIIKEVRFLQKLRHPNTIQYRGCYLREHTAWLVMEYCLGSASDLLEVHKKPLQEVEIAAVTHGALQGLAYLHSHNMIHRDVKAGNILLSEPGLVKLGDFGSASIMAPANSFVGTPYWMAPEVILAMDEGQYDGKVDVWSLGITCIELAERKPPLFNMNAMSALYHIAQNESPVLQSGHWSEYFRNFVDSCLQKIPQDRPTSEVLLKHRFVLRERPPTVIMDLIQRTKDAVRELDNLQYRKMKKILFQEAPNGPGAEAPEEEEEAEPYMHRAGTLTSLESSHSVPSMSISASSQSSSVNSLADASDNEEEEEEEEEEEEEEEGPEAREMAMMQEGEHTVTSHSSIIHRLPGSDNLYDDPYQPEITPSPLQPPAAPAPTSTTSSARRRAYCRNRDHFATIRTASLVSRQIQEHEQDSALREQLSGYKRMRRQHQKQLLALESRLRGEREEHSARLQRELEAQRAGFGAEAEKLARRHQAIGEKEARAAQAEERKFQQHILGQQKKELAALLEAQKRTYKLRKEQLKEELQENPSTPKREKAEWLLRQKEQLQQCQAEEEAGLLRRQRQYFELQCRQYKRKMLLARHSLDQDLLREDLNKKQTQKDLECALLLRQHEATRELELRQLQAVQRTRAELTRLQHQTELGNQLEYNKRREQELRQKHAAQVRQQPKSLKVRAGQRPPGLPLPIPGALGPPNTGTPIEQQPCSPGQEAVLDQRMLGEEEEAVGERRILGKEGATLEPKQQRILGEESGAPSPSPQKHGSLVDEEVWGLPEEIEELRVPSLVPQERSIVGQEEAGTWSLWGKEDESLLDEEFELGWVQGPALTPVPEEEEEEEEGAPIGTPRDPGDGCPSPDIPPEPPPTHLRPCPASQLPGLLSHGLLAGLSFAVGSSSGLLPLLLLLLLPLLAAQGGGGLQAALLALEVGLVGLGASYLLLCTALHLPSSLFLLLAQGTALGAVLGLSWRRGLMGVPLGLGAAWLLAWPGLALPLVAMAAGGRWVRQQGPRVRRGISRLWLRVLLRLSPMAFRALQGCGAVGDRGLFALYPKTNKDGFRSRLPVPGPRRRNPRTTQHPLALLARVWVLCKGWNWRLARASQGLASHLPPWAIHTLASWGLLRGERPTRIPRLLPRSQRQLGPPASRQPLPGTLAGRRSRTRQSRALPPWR

LTK = LTK (Homo sapiens, UniProt P29376)
Text: (§1) The detection of EGFR (another HER family member) was ambiguous because the peptides used to detect it were also present in ERBB2.

DYRK1B = DYRK1B (Homo sapiens, UniProt Q9Y463)
Text: as §1

T1 sequence (Q9P289 whole entry): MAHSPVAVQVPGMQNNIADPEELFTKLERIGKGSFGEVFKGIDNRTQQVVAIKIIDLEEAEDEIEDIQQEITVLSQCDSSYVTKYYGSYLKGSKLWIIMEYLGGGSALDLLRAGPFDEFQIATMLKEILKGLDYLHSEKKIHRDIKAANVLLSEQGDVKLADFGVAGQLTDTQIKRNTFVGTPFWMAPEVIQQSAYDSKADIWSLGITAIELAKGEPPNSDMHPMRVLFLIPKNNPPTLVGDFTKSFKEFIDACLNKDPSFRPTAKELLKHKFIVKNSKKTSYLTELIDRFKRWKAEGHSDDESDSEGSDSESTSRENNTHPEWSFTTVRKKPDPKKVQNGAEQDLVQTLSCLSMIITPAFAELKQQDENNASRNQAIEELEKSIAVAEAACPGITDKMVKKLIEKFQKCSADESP

inhibition (MST4): -2.5%
inhibition (CLK2): 18.5%
inhibition (PKD1): 76%
inhibition (RSK3): 2.5%
inhibition (PIM3): 1%
inhibition (CK1_epsilon1): 10.5%
inhibition (MAPKAPK3): 14.5%
inhibition (Aurora_C): 22.5%
inhibition (HIPK4): 5.5%
inhibition (CDK5/p25): 8%
inhibition (GRK2): 0%
inhibition (IRR): 6.5%
inhibition (PRKAA2_B1_G2): 4.5%
inhibition (GRK4): -11.5%
inhibition (GSK3_alpha): 10%
inhibition (LynB): 37%
inhibition (PRKAA2_B1_G3): 4%
inhibition (Mer): 49.5%
inhibition (MST1): 2%
inhibition (TXK): 15%
inhibition (GRK5): -4.5%
inhibition (NEK7): 7%
inhibition (MKNK1): 6%
inhibition (MELK): 5.5%
inhibition (p70S6K): 7.5%
inhibition (GCK): 6.5%
inhibition (MRCK_alpha): -3.5%
inhibition (p70S6Kb): 2.5%
inhibition (NEK2): 4%
inhibition (PIM1): 5.5%
inhibition (EphB2): 12%
inhibition (DMPK2): 2%
inhibition (MYLK2(skMLCK)): -3%
inhibition (NEK4): 8.5%
inhibition (TAO2): -5%
inhibition at 10 µM (LTK): 0.5%
inhibition at 10 µM (DYRK1B): 3%
Structure (SMILES): CC(C)(O)CC(=O)NCCn1ccc2ncnc(Nc3ccc(Oc4cccc(C(F)(F)F)c4)c(Cl)c3)c21 [TAK-285]
